Assay: recombinant barcode read abundance after kanamycin selection (control-corrected) (log10(CPM+1)); higher = more efficient recombination; sequences stand for … in AGTGCAGAGAAAATCGGCCAGTTTTCTCTGCCTGCAGTCCGCATGCCGT…AGATTTATGCAGCGGACTGCCTTTCTCCCAAAGTGATAAACCGGACAGTATCATGGACCGGTTTTCCCGGTAATCCGTATTTGCAAGGTTGGTTTCACT; site = the 11-nt target
Description: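 Pooled E. coli target-specificity screen for the IS621 bridge recombinase. Each library plasmid pairs an 11-nt target (CT core) with a bridge RNA whose target-binding loop (9-nt LTG + 4-nt RTG) is reprogrammed; the rest of the 177-nt WT IS621 bridge RNA scaffold is fixed. The plasmid is co-electroporated with a WT donor plasmid; recombinase is induced with 0.1 mM IPTG and recombinants are selected on kanamycin. Recombinant barcodes are sequenced, converted to CPM, averaged over two biological replicates and corrected by the unselected control CPM. Molecule = full bridge RNA written as DNA: LTG = specificity nt 1-9, RTG = reverse complement of specificity nt 8-11, in the WT scaffold.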
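Further: IS621 recombinase and bridge RNA in Escherichia coli cells.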

| Sequence | recombinant barcode read abundance (log10) |
| --- | --- |
| ACACGTGCTTGGGTTCTAACCTGTTGCGA (site ACACGTGCTTC) | 1.46 |
| ACACGTGCTTGGGTTCTAACCTGTTGCGA (site CAGAAGTCTAA) | 0.215 |
| ACACTAGCTTGGGTTCTAACCTGTTGCTG (site ACAATAGCTCA) | 0.313 |
| ACACTAGCTTGGGTTCTAACCTGTTGCTG (site ACACTAGCTCA) | 1.19 |
| ACACTAGCTTGGGTTCTAACCTGTTGCTG (site ACAGTAGCTCA) | 0.445 |
| ACACTAGCTTGGGTTCTAACCTGTTGCTG (site ACATTAGCTCA) | 0.0774 |
| ACAGAGACTTGGGTTCTAACCTGTTGCGC (site ACAAAGACTGC) | 0.372 |
| ACAGAGACTTGGGTTCTAACCTGTTGCGC (site ACACAGACTGC) | 0.127 |
| ACAGAGACTTGGGTTCTAACCTGTTGCGC (site ACAGAGACTGC) | 1.46 |
| ACAGAGACTTGGGTTCTAACCTGTTGCGC (site ACATAGACTGC) | 0.221 |
| ACAGCCTCTTGGGTTCTAACCTGTTGCCT (site ACAGCCTCTAG) | 2.84 |
| ACAGCCTCTTGGGTTCTAACCTGTTGCCT (site ACAGGCTCTAG) | 0.156 |
| ACAGGCTCTTGGGTTCTAACCTGTTGCCT (site ACAGCCTCTAG) | 0.0406 |
| ACAGGCTCTTGGGTTCTAACCTGTTGCCT (site ACAGGCTCTAG) | 1.82 |
| ACAGGTACTTGGGTTCTAACCTGTTGCCT (site ACAGGTACTAG) | 1.18 |
| ACAGGTACTTGGGTTCTAACCTGTTGCCT (site CCAGGTACTAG) | 0.428 |
| ACAGGTACTTGGGTTCTAACCTGTTGCCT (site GCAGGTACTAG) | 0.0917 |
| ACAGGTACTTGGGTTCTAACCTGTTGCCT (site TCAGGTACTAG) | 0.456 |
| ACAGGTCCTTGGGTTCTAACCTGTTGCGA (site ACAGGTCCTTC) | 3.05 |
| ACAGGTCCTTGGGTTCTAACCTGTTGCGA (site GTCATGTCTCA) | 0 |
| ACAGTATCTTGGGTTCTAACCTGTTGCTG (site ACAGTATCTCA) | 0.479 |

| Sequence | recombinant barcode read abundance (log10) |
| --- | --- |
| ACAGTATCTTGGGTTCTAACCTGTTGCTG (site TGCAATACTAT) | 0 |
| ACATAGTCTTGGGTTCTAACCTGTTGCCT (site ACATAGTCTAG) | 1.75 |
| ACATAGTCTTGGGTTCTAACCTGTTGCCT (site AGATACTCTAG) | 0.0816 |
| ACATATCCTTGGGTTCTAACCTGTTGCGT (site ACATATCCTAC) | 1.78 |
| ACATATCCTTGGGTTCTAACCTGTTGCGT (site ACCTACCCTAC) | 0.0409 |
| ACATGAACTTGGGTTCTAACCTGTTGCCT (site ACATGAACTAG) | 1.47 |
| ACATGAACTTGGGTTCTAACCTGTTGCCT (site ACCTGAACTAG) | 0.0918 |
| ACATGAACTTGGGTTCTAACCTGTTGCCT (site ACGTGAACTAG) | 0.0989 |
| ACATGAACTTGGGTTCTAACCTGTTGCCT (site ACTTGAACTAG) | 0.101 |
| ACATGCACTTGGGTTCTAACCTGTTGCAT (site ACATGAACTAT) | 0.0673 |
| ACATGCACTTGGGTTCTAACCTGTTGCAT (site ACATGCACTAT) | 1.05 |
| ACATGCACTTGGGTTCTAACCTGTTGCAT (site ACATGGACTAT) | 0.0168 |
| ACATGCACTTGGGTTCTAACCTGTTGCAT (site ACATGTACTAT) | 0.116 |
| ACATGTCCTTGGGTTCTAACCTGTTGCAT (site ACATGTCCTAA) | 0.374 |
| ACATGTCCTTGGGTTCTAACCTGTTGCAT (site ACATGTCCTAC) | 1.24 |
| ACATGTCCTTGGGTTCTAACCTGTTGCAT (site ACATGTCCTAG) | 0.137 |
| ACATGTCCTTGGGTTCTAACCTGTTGCAT (site ACATGTCCTAT) | 1.99 |
| ACATTGTCTTGGGTTCTAACCTGTTGCCT (site ACATTGTCTAG) | 1.73 |
| ACATTGTCTTGGGTTCTAACCTGTTGCCT (site ACCTTGTCTAG) | 0.0705 |
| ACATTGTCTTGGGTTCTAACCTGTTGCCT (site ACGTTGTCTAG) | 0.0669 |
| ACATTGTCTTGGGTTCTAACCTGTTGCCT (site ACTTTGTCTAG) | 0.284 |

| Sequence | recombinant barcode read abundance (log10) |
| --- | --- |
| ACATTTACTTGGGTTCTAACCTGTTGCCT (site ACATTTACTAG) | 0.0855 |
| ACATTTACTTGGGTTCTAACCTGTTGCCT (site TCATATACTAG) | 0.242 |
| ACATTTCCTTGGGTTCTAACCTGTTGCAT (site ACATTTCCTAT) | 0.8 |
| ACATTTCCTTGGGTTCTAACCTGTTGCAT (site TAGAACTCTGC) | 0.105 |
| ACCAAAGCTTGGGTTCTAACCTGTTGCCA (site ACCAAAGCTTG) | 0.115 |
| ACCAAAGCTTGGGTTCTAACCTGTTGCCA (site ACCACAGCTAG) | 0.137 |
| ACCAAATCTTGGGTTCTAACCTGTTGCCG (site ACCAAATCTCG) | 0.0782 |
| ACCAAATCTTGGGTTCTAACCTGTTGCCG (site ACCAAATCTTA) | 0.0479 |
| ACCAAGACTTGGGTTCTAACCTGTTGCCG (site ACCAAGACTCG) | 0.373 |
| ACCAAGACTTGGGTTCTAACCTGTTGCCG (site TCCAAGACTCT) | 0.00901 |
| ACCAAGCCTTGGGTTCTAACCTGTTGCGG (site ACCAAGCCTCC) | 1.36 |
| ACCAAGCCTTGGGTTCTAACCTGTTGCGG (site GCCCAGCCTCC) | 0.295 |
| ACCAATCCTTGGGTTCTAACCTGTTGCCT (site ACCAATACTAG) | 0.087 |
| ACCAATCCTTGGGTTCTAACCTGTTGCCT (site ACCAATCCTAG) | 0.21 |
| ACCAATCCTTGGGTTCTAACCTGTTGCCT (site ACCAATGCTAG) | 0.177 |
| ACCAATCCTTGGGTTCTAACCTGTTGCCT (site ACCAATTCTAG) | 0.0626 |
| ACCAGGTCTTGGGTTCTAACCTGTTGCCT (site AACAGGTCTAG) | 0.15 |
| ACCAGGTCTTGGGTTCTAACCTGTTGCCT (site ACCAGGTCTAG) | 1.59 |
| ACCAGGTCTTGGGTTCTAACCTGTTGCCT (site AGCAGGTCTAG) | 0.208 |
| ACCAGGTCTTGGGTTCTAACCTGTTGCCT (site ATCAGGTCTAG) | 0.09 |
| ACCAGTCCTTGGGTTCTAACCTGTTGCTG (site ACCAGTCCTCA) | 1.97 |

| Sequence | recombinant barcode read abundance (log10) |
| --- | --- |
| ACCAGTCCTTGGGTTCTAACCTGTTGCTG (site ACCAGTCCTTA) | 0.0735 |
| ACCCAAACTTGGGTTCTAACCTGTTGCCT (site ACCCAAACTAG) | 1.08 |
| ACCCAAACTTGGGTTCTAACCTGTTGCCT (site ACCCAACCTAG) | 0.0677 |
| ACCCAAACTTGGGTTCTAACCTGTTGCCT (site ACCCAAGCTAG) | 0.161 |
| ACCCAAACTTGGGTTCTAACCTGTTGCCT (site ACCCAATCTAG) | 0.0553 |
| ACCCGCTCTTGGGTTCTAACCTGTTGCCT (site ACCCGCTCTAG) | 0.542 |
| ACCCGCTCTTGGGTTCTAACCTGTTGCCT (site TAGGATCCTTC) | 0.538 |
| ACCCTAACTTGGGTTCTAACCTGTTGCGG (site ACCCTAACTCC) | 1.16 |
| ACCCTAACTTGGGTTCTAACCTGTTGCGG (site ACCTTAGCTCC) | 0 |
| ACCCTATCTTGGGTTCTAACCTGTTGCCT (site ACCCTAACTCG) | 0.0342 |
| ACCCTATCTTGGGTTCTAACCTGTTGCCT (site ACCCTATCTAG) | 1.39 |
| ACCCTCCCTTGGGTTCTAACCTGTTGCTA (site ACCCTCCCTTA) | 2.47 |
| ACCCTCCCTTGGGTTCTAACCTGTTGCTA (site ACTCTACCTTA) | 0.136 |
| ACCGGTCCTTGGGTTCTAACCTGTTGCGT (site ACCGGTCCTAC) | 2.14 |
| ACCGGTCCTTGGGTTCTAACCTGTTGCGT (site ATCGTTCCTAC) | 0.0193 |
| ACCGTACCTTGGGTTCTAACCTGTTGCCT (site ACCGTACCTAG) | 0.304 |
| ACCGTACCTTGGGTTCTAACCTGTTGCCT (site ACCGTAGCTAG) | 0.0594 |
| ACCGTTCCTTGGGTTCTAACCTGTTGCCT (site ACCGTTCCTAG) | 0.78 |
| ACCGTTCCTTGGGTTCTAACCTGTTGCCT (site CTTTAAGCTTA) | 0.0328 |
